Laboratory results from ChEMBL document CHEMBL4257444, “Novel bipharmacophoric inhibitors of the cholinesterases with affinity to the muscarinic receptors M1 and M2” (Medchemcomm, 2017).

Columns and labels:
[1] = target: Acetylcholinesterase (Electrophorus electricus) (UniProt O42275); test: Inhibition of electric eel AChE at 100 uM using acetylthiocholine iodide as substrate pretreated for 4.5 mins followed by substrate addition and measured after 2.5 mins by Ellman's method relative to control
Chain of Acetylcholinesterase (Electrophorus electricus) (O42275 24-633 limits assumed): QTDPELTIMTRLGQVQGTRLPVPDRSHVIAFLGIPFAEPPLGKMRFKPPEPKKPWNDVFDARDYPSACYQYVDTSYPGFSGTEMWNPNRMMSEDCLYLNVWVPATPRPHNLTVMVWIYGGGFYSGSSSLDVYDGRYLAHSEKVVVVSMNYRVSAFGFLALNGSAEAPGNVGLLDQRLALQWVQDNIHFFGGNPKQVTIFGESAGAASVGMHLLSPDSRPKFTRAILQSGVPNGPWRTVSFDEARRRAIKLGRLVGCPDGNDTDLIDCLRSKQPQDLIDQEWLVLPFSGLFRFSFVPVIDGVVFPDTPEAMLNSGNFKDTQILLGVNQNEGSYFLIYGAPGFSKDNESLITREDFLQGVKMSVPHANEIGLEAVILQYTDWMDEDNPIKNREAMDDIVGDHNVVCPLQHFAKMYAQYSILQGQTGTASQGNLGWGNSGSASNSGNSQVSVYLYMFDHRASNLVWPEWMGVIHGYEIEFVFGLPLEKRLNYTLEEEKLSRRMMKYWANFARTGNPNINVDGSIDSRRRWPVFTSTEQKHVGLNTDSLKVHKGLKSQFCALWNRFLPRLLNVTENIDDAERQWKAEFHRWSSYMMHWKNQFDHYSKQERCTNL

[2] = target: Cholinesterase (Equus caballus, UniProt P81908)
Chain of Cholinesterase (Equus caballus, UniProt P81908) (P81908 whole entry): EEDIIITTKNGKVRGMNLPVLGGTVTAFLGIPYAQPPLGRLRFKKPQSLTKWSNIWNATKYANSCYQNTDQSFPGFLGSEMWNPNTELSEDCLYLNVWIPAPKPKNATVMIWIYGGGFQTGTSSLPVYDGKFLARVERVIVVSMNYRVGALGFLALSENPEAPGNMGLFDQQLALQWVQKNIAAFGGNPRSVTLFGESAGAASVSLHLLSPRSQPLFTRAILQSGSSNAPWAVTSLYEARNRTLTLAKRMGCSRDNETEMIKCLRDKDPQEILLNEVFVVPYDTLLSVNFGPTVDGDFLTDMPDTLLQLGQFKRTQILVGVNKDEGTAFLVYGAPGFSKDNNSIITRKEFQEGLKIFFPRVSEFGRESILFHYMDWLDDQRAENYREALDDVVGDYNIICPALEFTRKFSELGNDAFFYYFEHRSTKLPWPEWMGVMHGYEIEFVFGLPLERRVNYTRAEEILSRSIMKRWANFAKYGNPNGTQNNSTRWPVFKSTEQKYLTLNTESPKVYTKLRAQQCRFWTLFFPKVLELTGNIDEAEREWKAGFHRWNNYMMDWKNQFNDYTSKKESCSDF
Description: Inhibition of equine serum BChE using butyrylthiocholine iodide as substrate pretreated for 4.5 mins followed by substrate addition and measured after 2.5 mins by Ellman's method

[3] = physchem; settings: octanol/water
Description: Octanol/water partition co-efficient, log P of the compound by RP-HPLC analysis

[4] = target: Acetylcholinesterase (Electrophorus electricus, UniProt O42275)
Chain of Acetylcholinesterase (Electrophorus electricus, UniProt O42275) (O42275 whole entry): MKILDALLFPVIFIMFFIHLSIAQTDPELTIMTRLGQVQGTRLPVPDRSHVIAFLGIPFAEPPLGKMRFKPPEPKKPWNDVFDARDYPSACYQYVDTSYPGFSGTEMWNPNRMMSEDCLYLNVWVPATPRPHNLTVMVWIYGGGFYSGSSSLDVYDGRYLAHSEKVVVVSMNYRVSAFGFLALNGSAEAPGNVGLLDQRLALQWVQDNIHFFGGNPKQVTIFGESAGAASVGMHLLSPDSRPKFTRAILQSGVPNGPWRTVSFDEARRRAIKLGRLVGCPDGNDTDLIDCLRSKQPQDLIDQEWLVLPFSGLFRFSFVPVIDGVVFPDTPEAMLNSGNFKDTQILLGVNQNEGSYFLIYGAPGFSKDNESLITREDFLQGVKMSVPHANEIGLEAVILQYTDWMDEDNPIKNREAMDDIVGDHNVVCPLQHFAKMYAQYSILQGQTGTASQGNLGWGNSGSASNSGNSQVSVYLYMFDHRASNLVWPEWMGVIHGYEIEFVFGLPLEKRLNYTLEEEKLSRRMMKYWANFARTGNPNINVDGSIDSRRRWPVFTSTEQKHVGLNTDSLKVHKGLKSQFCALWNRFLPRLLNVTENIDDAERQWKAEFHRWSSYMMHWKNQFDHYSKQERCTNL
Description: Inhibition of electric eel AChE using acetylthiocholine iodide as substrate pretreated for 4.5 mins followed by substrate addition and measured after 2.5 mins by Ellman's method

[5] = target: Cholinesterase (Homo sapiens, UniProt P06276); test: Inhibition of human serum BChE using butyrylthiocholine iodide as substrate pretreated for 4.5 mins followed by substrate addition and measured after 2.5 mins by Ellman's method
Chain of Cholinesterase (Homo sapiens, UniProt P06276) (P06276 whole entry): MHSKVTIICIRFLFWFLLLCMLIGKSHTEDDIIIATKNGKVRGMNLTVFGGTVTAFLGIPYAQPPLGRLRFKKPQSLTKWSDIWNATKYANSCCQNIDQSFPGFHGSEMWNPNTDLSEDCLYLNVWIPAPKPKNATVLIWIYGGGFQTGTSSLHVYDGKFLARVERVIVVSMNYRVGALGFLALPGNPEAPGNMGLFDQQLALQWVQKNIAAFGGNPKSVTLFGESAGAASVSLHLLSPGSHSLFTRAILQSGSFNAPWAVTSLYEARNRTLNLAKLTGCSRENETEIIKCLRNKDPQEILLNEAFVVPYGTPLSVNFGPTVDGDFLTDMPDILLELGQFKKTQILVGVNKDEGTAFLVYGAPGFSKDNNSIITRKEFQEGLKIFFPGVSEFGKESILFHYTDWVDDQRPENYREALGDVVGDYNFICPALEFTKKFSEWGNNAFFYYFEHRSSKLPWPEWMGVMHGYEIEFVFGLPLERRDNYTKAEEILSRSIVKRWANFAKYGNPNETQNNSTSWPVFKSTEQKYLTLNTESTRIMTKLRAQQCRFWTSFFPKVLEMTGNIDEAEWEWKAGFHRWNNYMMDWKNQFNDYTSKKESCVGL

[6] = target: Acetylcholinesterase (Homo sapiens, UniProt P22303); test: Inhibition of recombinant human AChE expressed in HEK293 cells using acetylthiocholine iodide as substrate pretreated for 4.5 mins followed by substrate addition and measured after 2.5 mins by Ellman's method
Chain of Acetylcholinesterase (Homo sapiens, UniProt P22303) (P22303 whole entry): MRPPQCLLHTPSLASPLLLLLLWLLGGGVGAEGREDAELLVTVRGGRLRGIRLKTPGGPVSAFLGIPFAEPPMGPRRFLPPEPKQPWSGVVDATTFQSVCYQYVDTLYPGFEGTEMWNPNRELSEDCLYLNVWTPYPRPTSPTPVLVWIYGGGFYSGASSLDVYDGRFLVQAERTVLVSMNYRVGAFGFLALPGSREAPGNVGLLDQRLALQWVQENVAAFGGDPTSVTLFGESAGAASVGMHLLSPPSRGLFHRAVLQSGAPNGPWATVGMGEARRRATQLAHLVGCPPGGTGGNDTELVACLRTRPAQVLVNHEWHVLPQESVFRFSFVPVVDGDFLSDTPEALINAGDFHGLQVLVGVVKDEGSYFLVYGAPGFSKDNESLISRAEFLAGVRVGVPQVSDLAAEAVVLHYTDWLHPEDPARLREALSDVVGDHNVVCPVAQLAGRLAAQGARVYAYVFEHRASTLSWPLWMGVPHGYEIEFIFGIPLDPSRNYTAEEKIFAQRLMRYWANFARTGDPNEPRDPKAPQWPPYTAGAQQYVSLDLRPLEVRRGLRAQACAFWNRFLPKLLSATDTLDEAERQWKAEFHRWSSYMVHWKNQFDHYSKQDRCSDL

[7] = organism: Homo sapiens; test: Selectivity ratio of compound effect for displacement of [3H]NMS from recombinant human M2 receptor expressed in CHO cell membranes to displacement of [3H]NMS from recombinant human M1 receptor expressed in CHO cell membranes
[8] = test system: HepG2; test: cells; settings: Homo sapiens, HepG2, 72 h
Description: Cytotoxicity against human HepG2 cells after 72 hrs by alamar blue assay

Row | SMILES | inhibition [1] [%] | IC50 [2] [nM] | logP [3] | IC50 [4] [nM] | IC50 [5] [nM] | IC50 [6] [nM] | Selectivity ratio [7] | IC50 [8] [nM]
1 | C[N+](C)(CC#CCOc1ccon1)CCCC[N+](C)(C)CCCN1C(=O)c2ccccc2C1=O | 19.1 | 85100 | 1.55 | – | – | – | – | –
2 | C[N+](C)(CC#CCOC1=NOCC1)CCCCCC[N+]1(C)CCC(N2C(=O)c3ccccc3C2=O)CC1 (configuration not stated) | – | 10700 | 0.84 | 2400 | – | – | – | –
3 | CC(C)(CN1C(=O)c2cccc3cccc(c23)C1=O)C[N+](C)(C)CCCCCCCCC[N+](C)(C)CC#CCOC1=NOCC1 | – | 324 | 1.69 | 363 | – | – | – | –
4 | CC(C)(CN1C(=O)c2cccc3cccc(c23)C1=O)C[N+](C)(C)CCCCCCCC[N+](C)(C)CC#CCOC1=NOCC1 | – | 347 | 1.61 | 794 | – | – | – | –
5 | C[N+](C)(CC#CCOC1=NOCC1)CCCCCCCCC[N+](C)(C)CCCN1C(=O)c2ccccc2C1=O | – | 13200 | 0.79 | 15800 | – | – | – | –
6 | C[N+](C)(CC#CCOC1=NOCC1)CCCCCC[N+]1(C)CCC(N2C(=O)c3cccc4cccc(c34)C2=O)CC1 (configuration not stated) | – | 851 | 1.54 | 1050 | – | – | – | –
7 | C[N+](C)(CC#CCOC1=NOCC1)CCCCCCCCCC[N+](C)(C)CCCN1C(=O)c2ccccc2C1=O | – | 4270 | 0.8 | 5500 | 1950 | 13200 | – | –
8 | C[N+](C)(CC#CCOC1=NOCC1)CCCCCCCCCCNc1c2c(nc3ccccc13)CCCC2 | – | 1.78 | 3.28 | 0.155 | 1.82 | 1.78 | 8 | 32200
9 | C[N+](C)(CC#CCOc1ccon1)CCCCCC[N+](C)(C)CCCN1C(=O)c2ccccc2C1=O | 32.2 | 38900 | 0.99 | – | – | – | – | –
10 | c1ccc2c(NCCCCCCCNc3c4c(nc5ccccc35)CCCC4)c3c(nc2c1)CCCC3 | – | 0.724 | – | 0.0331 | – | – | – | < 1380
11 | CC(C)(CN1C(=O)c2cccc3cccc(c23)C1=O)C[N+](C)(C)CCCCCCC[N+](C)(C)CC#CCOC1=NOCC1 | – | 204 | 1.7 | 912 | – | – | – | –
12 | c1ccc2c(CCCCCCCCCCNc3c4c(nc5ccccc35)CCCC4)c3c(nc2c1)CCCC3 | – | 0.457 | – | 1 | – | – | – | < 1250
13 | CC(C)(CN1C(=O)c2cccc3cccc(c23)C1=O)C[N+](C)(C)CCCCCCCCCC[N+](C)(C)CC#CCOC1=NOCC1 | – | 102 | 1.77 | 316 | 263 | 1070 | – | –
14 | BrCCCCCCCNc1c2c(nc3ccccc13)CCCC2 | – | 263 | – | 0.398 | – | – | – | –
15 | BrCCCCCCCCCCNc1c2c(nc3ccccc13)CCCC2 | – | 8.71 | – | 0.562 | – | – | – | –
16 | C[N+](C)(CC#CCOC1=NOCC1)CCCCCCC[N+](C)(C)CCCN1C(=O)c2ccccc2C1=O | – | 6460 | 0.79 | 14800 | – | – | – | –
17 | C[N+](C)(CC#CCOc1ccon1)CCCCCCCC[N+](C)(C)CCCN1C(=O)c2ccccc2C1=O | – | 7940 | 0.83 | 67600 | – | – | – | –
18 | C[N+](C)(CC#CCOC1=NOCC1)CCCCCCCC[N+](C)(C)CCCN1C(=O)c2ccccc2C1=O | – | 7410 | 0.78 | 12900 | – | – | – | –
19 | C[N+](C)(CC#CCOC1=NOCC1)CCCCCCCNc1c2c(nc3ccccc13)CCCC2 | – | 5.13 | 2.05 | 1.74 | 4.57 | 2 | 3 | > 160000
